These results are taken from US8748610B2, “Compounds as TRPV1 antagonists, pharmaceutical compositions and medical uses thereof” (FL Therapeutics LLC, priority 2009, dated 2014).

This assay deals with T1, recombinant human TRPV1 (Homo sapiens, UniProt Q8NER1).
T1 construct: expressed in transfected cells
T1 sequence (Q8NER1 whole entry): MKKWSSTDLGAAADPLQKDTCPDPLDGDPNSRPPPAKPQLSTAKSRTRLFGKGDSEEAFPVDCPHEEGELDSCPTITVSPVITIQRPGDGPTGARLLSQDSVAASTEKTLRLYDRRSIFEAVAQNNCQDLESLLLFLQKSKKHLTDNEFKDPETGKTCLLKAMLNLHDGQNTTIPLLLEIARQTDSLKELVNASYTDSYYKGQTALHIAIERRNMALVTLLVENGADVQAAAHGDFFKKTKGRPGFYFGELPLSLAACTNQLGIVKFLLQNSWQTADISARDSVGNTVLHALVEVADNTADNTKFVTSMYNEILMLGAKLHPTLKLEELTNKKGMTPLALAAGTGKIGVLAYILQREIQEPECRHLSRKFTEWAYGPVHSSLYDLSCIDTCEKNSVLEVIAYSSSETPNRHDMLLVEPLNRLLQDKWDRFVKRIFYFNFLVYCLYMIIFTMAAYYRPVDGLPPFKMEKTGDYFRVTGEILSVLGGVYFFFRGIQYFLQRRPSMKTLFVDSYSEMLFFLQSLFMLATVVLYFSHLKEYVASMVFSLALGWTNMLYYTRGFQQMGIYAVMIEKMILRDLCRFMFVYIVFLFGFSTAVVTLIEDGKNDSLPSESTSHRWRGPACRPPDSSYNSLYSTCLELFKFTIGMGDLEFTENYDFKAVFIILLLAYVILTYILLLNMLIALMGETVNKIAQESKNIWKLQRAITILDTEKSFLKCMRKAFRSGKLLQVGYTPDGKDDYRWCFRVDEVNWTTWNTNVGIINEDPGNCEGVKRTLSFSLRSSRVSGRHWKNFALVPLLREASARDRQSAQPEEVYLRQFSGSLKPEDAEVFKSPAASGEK
As to the kind of experiment: FLIPR based Ca2+ influx assay, capsaicin-induced, TRPV1.CHO cells. Format: cell-based. The conditions noted are these: CHO-K1 cells stably expressing recombinant human TRPV1; 30 nM capsaicin (~EC80); 15 mins pre-incubation. On the procedure:
The functional activity of compounds at the TRPV1 receptor was determined using a Molecular Devices FLIPR based Ca^2+ influx assay, employing a Ca^2+ sensitive fluorescent dye and a CHO-K1 cell line, stably expressing recombinant human TRPV1, under the control of a CMV promoter (TRPV1.CHO cells). TRPV1.CHO cells were routinely maintained at 37° C./5% CO2 in normal growth medium (Dulbecco's Modified Eagles medium (DMEM/NUT.MDC.F-12 GLUTAMAX-1 (1:1) with PYRIDOXINE) supplemented with 10% fetalclone II serum and 0.4 mg/ml G418, (all Invitrogen).
Test compounds were prepared as 10 mM stock solution in DMSO and tested for activity over several log units (ranging […]-100 pM). Serial dilutions (half-log dose response) were prepared in 100% DMSO with further dilutions in aqueous assay buffer to final assay concentration for IC50 determination (1% DMSO final).
TRPV1.CHO cells were seeded (10,000 cells/well) in a 384 clear bottom plate (Costar) 24 hr prior to assay. […]
TRPV1 responses were assessed following addition, in the FLIPR, of 12.5 μl/well of test compound (to give appropriate final concentration) for 15 mins time followed by 12.5 μl/well of 120 nM capsaicin (agonist) in TRPV1 buffer to give a final concentration of capsaicin of 30 nM (˜EC80 concentration). Ca^2+ influx was assessed by measurement of fluorescence. Baseline fluorescence responses were measured for approximately 10 s prior to addition of capsaicin. Increases in fluorescence emission following capsaicin addition were measured for a further 110 s. Responses were recorded as Max-Min fluorescence. Antagonist induced inhibition of TRPV1 mediated increases in intracellular [Ca^2+] was assessed relative to wells on the same plate to which capsaicin was added in the absence of antagonist (i.e pre-incubation in buffer alone).
The term IC50 denotes the concentration needed to halve the response being measured. With `C[Si](C)(C)c1ccc(NC(=O)N2CCN(c3ncccc3Cl)CC2)cc1` [A-01, 4(3-chloropyridin-2-yl)-N-(4-(trimethylsilyl)phenyl)piperazine-1-carboxamide], the IC50 turned out to be 0.5 nM.
In the case of `C[Si](C)(C)c1ccc(NC(=O)c2ccc(-c3ncccc3C(F)(F)F)cc2)cc1` [A-04, 4-(3-(trifluoromethyl)pyridin-2-yl)-N-(4-(trimethylsilyl)phenyl)benzamide] it was 5.4 nM; in that of `C[Si](C)(C)c1ccc(NC(=O)C2=CCN(c3ncccc3Cl)CC2)cc1` [A-05, 1-(3-chloropyridin-2-yl)-N-(4-(trimethylsilyl)phenyl)-1,2,3,6-tetrahydropyridine-4-carboxamide], 2.3 nM.
